In patent US20060165683A1, “Methods and compositions for control of bone formation via modulation of sympathetic tone” (priority 2001, published 2006):

How the values were obtained:
primary osteoblasts = test: Gene expression and apoptosis in primary osteoblasts; format: cell-based, mouse
Experimental: (§1) Primary osteoblast cultures were established as previously described (see, e.g., Ducy et al., 2000, Cell 100: 197-207) and maintained in αMEM/0.1 mg/ml ascorbic acid supplemented with 10% FBS. SaOS-2 were grown in MEM/10% FBS. For cAMP assay confluent cultures were incubated with serum free medium containing 100 μM IBMX (3-isobutyl-1-methylxanthine, Sigma) for 8 minutes before PBS, PTH(1-34) (Bachem), isoproterenol, norepinephrine, phenylephrine (Sigma) or propranolol were added for 5 min. Intracellular cAMP concentration was measured by immunoassay (R&D Systems). For gene expression analyses, primary osteoblasts were treated for 72 hours with appropriate drugs in 0.1% FBS. Hormone serum levels were quantified using immunoassays kits from Peninsula Laboratories (Insulin) or Alpco Diagnostics (leptin). Deoxypyridinoline cross-links and Creatinine were measured in morning urines using the Quidel kits. a1(I) leptin bioactivity was verified by cotransfection of 293 cells expressing ObRb with a STAT3-responsive-luc reporter construct, pSVβgal plasmid and a1(I) leptin expression vector or mock. Twenty-four hours later luciferase and β-galactosidase activities were measured. Data represents ratios of luciferase/β-galactosidase activities, and values are mean of 6 independent transfection experiments.
To elucidate the bases of the antiosteogenic effect of isoproterenol in vivo, osteoblast proliferation, gene expression and apoptosis were studied.

[1] = tested on: murine primary osteoblasts; test: cAMP production in murine primary osteoblasts; format: cell-based, mouse; settings: confluent cultures, 100 μM IBMX, 5 min treatment; PTH as positive control
Experimental: as §1
For a sympathetic regulation of bone formation to exist several requirements have to be fulfilled. The first one is that functional adrenergic receptors are present on osteoblasts. […] Immunohistochemical analysis of long bones from transgenic mice expressing LacZ under the control of the osteoblast-specific fragment of the a1(I) collagen promoter verified the presence of β2-adrenergic receptors on osteoblasts (FIG. 13B). No other adrenergic receptor subtype could be detected. […] Electron micrographs confirmed the presence of unmyelinated peripheral nerve axons coursing through the marrow adjacent to bone trabeculae and to osteoblasts (FIG. 13E). β-adrenergic receptors are G-coupled receptors that signal through the cAMP pathway (see, e.g., Benovic et al., 1988, Annu Rev Cell Biol 4:405-428). Thus, to assess the biologic relevance of the presence of β2-adrenergic receptors on osteoblasts, these cells were treated with isoproterenol, a β-adrenergic agonist, alone or in the presence of propranolol, a β-adrenergic receptor antagonist; with norepinephrine, the natural ligand of β-adrenergic receptors; with phenylephrine, an α-adrenergic agonist or with vehicle and measured cAMP production. As a positive control, parathyroid hormone (PTH) that binds to another G-coupled receptor present in osteoblasts was used (Gardella & Juppner, 2001, Trends Endocrinol Metab 12:210-217.). […] These effects were abolished by propranolol treatment. […]

Dbh-deficient mice = test: Leptin ICV infusion in Dbh-deficient mice; format: in vivo, mouse
Experimental: Wildtype (C57BL/6J) and mutant (C57BL/6J A^y/a, C57BL/6J ob/ob) mice were obtained from the Jackson laboratory and adrenal medullectomized mice from Harlan Tecklad laboratory. Dbh−/− mice were rescued as previously described (Thomas et al., 1998, Neurochem 70:2468-2476). Isoproterenol (Sigma) was injected intraperitoneally (ip) once daily for 6 weeks at 30 mg/kg (wt) or 3 mg/kg (ob/ob). Propranolol (Sigma) was added to the drinking water at a concentration of 0.5 g/l. For ICV infusion, a 28-gauge cannula (Brain infusion kit II, Alza) was implanted into the third ventricle as previously described infusing human leptin (Sigma) at 8 ng/hr or MT-II at 125 ng/hr (Phoenix Pharmaceuticals) for 28 days (see, e.g., Ducy et al., 2000, Cell 100: 197-207). The cannula was connected to an osmotic pump (Alza) placed in the dorsal subcutaneous space of the animal. For parabiosis longitudinal incisions were made in the skin and in the peritoneal cavity along one side on each mouse. Edges of the incisions were connected by suture to induce coelioanastomosis. Cross-circulation was quantified by injecting 1 ml/kg 0.25% Evans blue into the tail vein of one mouse of the parabiosed pair. After 30 min. blood was collected from both mice by retroorbital bleeding and the blood exchange rate was calculated according to standard techniques (see, e.g., Harris & Martin, 1984, Am J Physiol 247:R380-386). […]

[2] = primary osteoblasts, 72 hours, 0.1% FBS, Northern blot

Molecule | apoptosis: Caspase 3 expression and Annexin-V staining levels (primary osteoblasts; isoproterenol-treated versus control osteoblasts) | expression of Cbfa1 (primary osteoblasts; [2]) | expression of a1(I) collagen (primary osteoblasts; [2]) | cAMP production [1] | bone mass (Dbh-deficient mice) | gonadal fat pad (Dbh-deficient mice)
CC(C)NCC(O)c1ccc(O)c(O)c1 (stereo not drawn) [isoproterenol] | did not observe any change | decreased | decreased | increased |  | 
leptin: polypeptide hormone, product of the ob gene; human leptin (Sigma) infused ICV (protein) VPIQKVQDDTKTLIKTIVTRINDISHTQSVSAKQRVTGLDFIPGLHPILSLSKMDQTLAVYQQVLTSLPSQNVLQIANDLENLRDLLHLLAFSKSCSLPQTSGLQKPESLDGVLEASLYSTEVVALSRLQGSLQDILQQLDVSPEC |  |  |  |  | failed to decrease | near disappearance
